Results on two molecules are retold here after US6214876A, “Indene-1-acetamide sPLA2 inhibitors” (Eli Lilly and Company, priority 1994, dated 2001).

pIC50: −log10 of the molar value.

This experiment deals with T1, recombinant human secreted phospholipase A2 (Homo sapiens, UniProt P14555).
T1 sequence (P14555 21-144): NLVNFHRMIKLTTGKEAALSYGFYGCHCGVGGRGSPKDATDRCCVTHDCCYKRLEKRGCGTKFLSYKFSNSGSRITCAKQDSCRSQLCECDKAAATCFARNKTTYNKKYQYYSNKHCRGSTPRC
As to the kind of experiment: PLA2 Chromogenic Assay (human secreted phospholipase A2 inhibition). The format is biochemical. The conditions noted are these: racemic diheptanoyl thio-PC 1 mM, pH 7.5, 40° C., 30 minutes, 405 nanometers, triplicate, read-out: Compound IC50. The source says: The following chromogenic assay procedure was used to identify and evaluate inhibitors of recombinant human secreted phospholipase A2. The assay described herein has been adapted for high volume screening using 96 well microtiter plates. A general description of this assay method is found in the article, "Analysis of Human Synovial Fluid Phospholipase A2 on Short Chain Phosphatidylcholine-Mixed Micelles: Development of a Spectrophotometric Assay Suitable for a Microtiterplate Reader", by Laure J. Reynolds, Lori L. Hughes, and Edward A Dennis, Analytical Biochemistry,204, pp. 190-197, 1992 (the disclosure of which is incorporated herein by reference): […]
A measured volume of racemic dipheptanoyl thio PC supplied in chloroform at a concentration of 100 mg/ml is taken to dryness and redissolved in 10 millimolar TRITON X-100™ nonionic detergent aqueous solution. […]
5. Read absorbance of wells at 405 nanometers with an automatic plate reader.
All compounds were tested in triplicate. […] Compounds initially found to be active were reassayed to confirm their activity and, if sufficiently active, IC50 values were determined. […] In all cases, % inhibition measured at 405 nanometers generated by enzyme reactions containing inhibitors relative to the uninhibited control reactions was determined. […] IC50 were determined by plotting log concentration versus inhibition values in the range from 10-90% inhibition.

In general, pIC50 refers to the IC50 on a negative log10 scale, so that one unit is a factor of ten. `CC1=C(CC(N)=O)c2cc(OCCCC(=O)O)ccc2/C1=C\c1ccccc1` [Compound 14a, 4-[3(z)-benzylidene-1-carbamoylmethyl-2-methyl-3H-inden-6-yloxy]-butanoic acid]: the pIC50 was 6.04.

Turning to `CC1=C(CC(N)=O)c2c(OCC(=O)O)cccc2/C1=C\c1ccccc1` [Compound 14b, [3(z)-benzylidene-1-carbamoylmethyl-2-methyl-3H-inden-7-yloxy]-acetic acid], the pIC50 is 6.38.
